Data taken from ChEMBL document CHEMBL3885881, “DrugMatrix”.

Organism: Rattus norvegicus
Test: DrugMatrix - Regimen: Daily Repeat
Format: toxicity, organism-based, Sprague-Dawley
Parameters: regimen Daily Repeat, gender Male, age 6-8 weeks
Settings: in vivo, po, route oral GAVAGE, […]; for ABSOLUTE BASOPHIL / BASOPHIL / NUCLEATED RED BLOOD CELLS / ABSOLUTE EOSINOPHIL / ABSOLUTE LYMPHOCYTE / ABSOLUTE MONOCYTE / ABSOLUTE SEGMENTED NEUTROPHIL / EOSINOPHIL / ERYTHROCYTE COUNT / HEMATOCRIT / HEMOGLOBIN / LEUKOCYTE COUNT / LYMPHOCYTE / MEAN CORPUSCULAR HEMOGLOBIN / MEAN CORPUSCULAR HEMOGLOBIN CONCENTRATION / MEAN CORPUSCULAR VOLUME / MONOCYTE / NEUTROPHIL / PLATELET COUNT: tissue Blood; for TOTAL BILIRUBIN / ALANINE AMINOTRANSFERASE / ALBUMIN / ALKALINE PHOSPHATASE / ASPARTATE AMINOTRANSFERASE / BLOOD UREA NITROGEN / CARBON DIOXIDE / CHLORIDE / CHOLESTEROL / CREATINE PHOSPHOKINASE / CREATININE / GLUCOSE / LACTATE DEHYDROGENASE / LIPASE / PHOSPHORUS / POTASSIUM / SODIUM / TOTAL PROTEIN / URIC ACID: tissue Plasma
[1] = 0 mg/kg, 72 h, dose level Control, time 3 day
[2] = 0 mg/kg, 120 h, dose level Control, time 5 day
[3] = 10 mg/kg, 72 h, dose level Low, time 3 day
[4] = 10 mg/kg, 120 h, dose level Low, time 5 day

## COc1ccc2cc([C@H](C)C(=O)O)ccc2c1 [NAPROXEN]
[1]
  ABSOLUTE BASOPHIL: 0 CELLS/uL
  BASOPHIL: 0%
  NUCLEATED RED BLOOD CELLS: 0 /100WBC
  TOTAL BILIRUBIN: 0.2 mg/dL
[2]
  ABSOLUTE BASOPHIL: 0 CELLS/uL
  BASOPHIL: 0%
[3]
  ABSOLUTE BASOPHIL: 0 CELLS/uL
  ABSOLUTE EOSINOPHIL: 0 CELLS/uL
  ABSOLUTE LYMPHOCYTE: 16953.33 CELLS/uL
  ABSOLUTE MONOCYTE: 484 CELLS/uL
  ABSOLUTE SEGMENTED NEUTROPHIL: 1296 CELLS/uL
  BASOPHIL: 0%
  EOSINOPHIL: 0%
  ERYTHROCYTE COUNT: 5.66 x10E6/uL
  HEMATOCRIT: 36.03%
  HEMOGLOBIN: 14.13 G/DL
  LEUKOCYTE COUNT: 18.73 x10E3/uL
  LYMPHOCYTE: 90.67%
  MEAN CORPUSCULAR HEMOGLOBIN: 25.03 pg
  MEAN CORPUSCULAR HEMOGLOBIN CONCENTRATION: 39.23 G/DL
  MEAN CORPUSCULAR VOLUME: 63.73 fL
  MONOCYTE: 2.67%
  NEUTROPHIL: 6.67%
  NUCLEATED RED BLOOD CELLS: 0.33 /100WBC
  PLATELET COUNT: 1140 x10E3/uL
  ALANINE AMINOTRANSFERASE: 66 u/L
  ALBUMIN: 3.9 G/DL
  ALKALINE PHOSPHATASE: 469.67 u/L
  ASPARTATE AMINOTRANSFERASE: 84 u/L
  BLOOD UREA NITROGEN: 9.67 mg/dL
  CARBON DIOXIDE: 20.33 mmol/L
  CHLORIDE: 103.67 MEQ/L
  CHOLESTEROL: 54.33 mg/dL
  CREATINE PHOSPHOKINASE: 295.33 u/L
  CREATININE: 0.19 mg/dL
  GLUCOSE: 187.67 mg/dL
  LACTATE DEHYDROGENASE: 313.33 u/L
  LIPASE: 9.33 u/L
  PHOSPHORUS: 12.03 mg/dL
  POTASSIUM: 6.09 MEQ/L
  SODIUM: 143.67 MEQ/L
  TOTAL BILIRUBIN: 0.1 mg/dL
  TOTAL PROTEIN: 5.87 G/DL
  URIC ACID: 2.03 mg/dL
[4]
  ABSOLUTE BASOPHIL: 0 CELLS/uL
  ABSOLUTE EOSINOPHIL: 321 CELLS/uL
  ABSOLUTE LYMPHOCYTE: 16605.33 CELLS/uL
  ABSOLUTE MONOCYTE: 680 CELLS/uL
  ABSOLUTE SEGMENTED NEUTROPHIL: 1493.67 CELLS/uL
  BASOPHIL: 0%
  EOSINOPHIL: 2%
  ERYTHROCYTE COUNT: 5.33 x10E6/uL
  HEMATOCRIT: 34.4%
  HEMOGLOBIN: 13.33 G/DL
  LEUKOCYTE COUNT: 19.1 x10E3/uL
  LYMPHOCYTE: 86.33%
  MEAN CORPUSCULAR HEMOGLOBIN: 25.23 pg
  MEAN CORPUSCULAR HEMOGLOBIN CONCENTRATION: 38.8 G/DL
  MEAN CORPUSCULAR VOLUME: 65 fL
  MONOCYTE: 3.67%
  NEUTROPHIL: 8%
  NUCLEATED RED BLOOD CELLS: 0 /100WBC
  PLATELET COUNT: 1322.33 x10E3/uL
  ALANINE AMINOTRANSFERASE: 109.67 u/L
  ALBUMIN: 3.7 G/DL
  ALKALINE PHOSPHATASE: 463.67 u/L
  ASPARTATE AMINOTRANSFERASE: 145.33 u/L
  BLOOD UREA NITROGEN: 8.33 mg/dL
  CARBON DIOXIDE: 19.33 mmol/L
  CHLORIDE: 104 MEQ/L
  CHOLESTEROL: 40.33 mg/dL
  CREATINE PHOSPHOKINASE: 1655.33 u/L
  CREATININE: 0.18 mg/dL
  GLUCOSE: 252 mg/dL
  LACTATE DEHYDROGENASE: 400 u/L
  LIPASE: 9 u/L
  PHOSPHORUS: 14.07 mg/dL
  POTASSIUM: 6.26 MEQ/L
  SODIUM: 143.27 MEQ/L
  TOTAL BILIRUBIN: 0.17 mg/dL
  TOTAL PROTEIN: 5.4 G/DL
  URIC ACID: 3.1 mg/dL
